Laboratory results reported in article PMC7241567 (Journal of Enzyme Inhibition and Medicinal Chemistry, 2020).
“Also recorded” adds a separate entry of the source.

Key:
Type in all cases: biochemical
ERK1 = biological target: T1, ERK1 (Homo sapiens, UniProt P27361); assay: Reaction Biology Kinase HotSpot radiometric kinase assay; conditions: 10 µM
T1 construct: purchased Reaction Biology Corp. (Kinase HotSpot service)

PKA = biological target: T2, PKA (Homo sapiens, UniProt P17612); assay: as above
T2 construct: purchased Reaction Biology Corp. (Kinase HotSpot service)

KDR/VEGFR2 = biological target: T3, KDR/VEGFR2 (Homo sapiens, UniProt P35968); assay: as above
T3 construct: purchased Reaction Biology Corp. (Kinase HotSpot service)

BTK = biological target: T4, BTK (Homo sapiens, UniProt Q06187); assay: as above
T4 construct: purchased Reaction Biology Corp. (Kinase HotSpot service)

JAK3 = biological target: T5, JAK3 (Homo sapiens, UniProt P52333); assay: as above
T5 construct: purchased Reaction Biology Corp. (Kinase HotSpot service)

JNK3 = biological target: T6, JNK3 (Homo sapiens, UniProt P53779); assay: as above
T6 construct: purchased Reaction Biology Corp. (Kinase HotSpot service)

FYN = biological target: T7, FYN (Homo sapiens, UniProt P06241); assay: as above
T7 construct: purchased Reaction Biology Corp. (Kinase HotSpot service)

AKT1 = biological target: T8, AKT1 (Homo sapiens, UniProt P31749); assay: as above
T8 construct: purchased Reaction Biology Corp. (Kinase HotSpot service)

LYN = biological target: T9, LYN (Homo sapiens, UniProt P07948); assay: as above
T9 construct: purchased Reaction Biology Corp. (Kinase HotSpot service)

c-Kit = biological target: T10, c-Kit (Homo sapiens, UniProt P10721); assay: as above
T10 construct: purchased Reaction Biology Corp. (Kinase HotSpot service)

FLT3 (F594_R595 ins R) = biological target: T11, FLT3 (F594_R595 ins R) (Homo sapiens, UniProt P36888, INS594R); assay: Enzymatic activity against FLT3 mutants
T11 construct: purchased Reaction Biology Corp. (Kinase HotSpot service)

MEK1 = biological target: T12, MEK1 (Homo sapiens, UniProt Q02750); assay: Reaction Biology Kinase HotSpot radiometric kinase assay
T12 construct: purchased Reaction Biology Corp. (Kinase HotSpot service)

FLT3-ITD = FLT3-ITD (Homo sapiens, UniProt P36888, ITD); assay: as above
FLT3 = biological target: T13, FLT3 (Homo sapiens, UniProt P36888); assay: as above
T13 construct: purchased Reaction Biology Corp. (Kinase HotSpot service)
T13 sequence (P36888 27-993): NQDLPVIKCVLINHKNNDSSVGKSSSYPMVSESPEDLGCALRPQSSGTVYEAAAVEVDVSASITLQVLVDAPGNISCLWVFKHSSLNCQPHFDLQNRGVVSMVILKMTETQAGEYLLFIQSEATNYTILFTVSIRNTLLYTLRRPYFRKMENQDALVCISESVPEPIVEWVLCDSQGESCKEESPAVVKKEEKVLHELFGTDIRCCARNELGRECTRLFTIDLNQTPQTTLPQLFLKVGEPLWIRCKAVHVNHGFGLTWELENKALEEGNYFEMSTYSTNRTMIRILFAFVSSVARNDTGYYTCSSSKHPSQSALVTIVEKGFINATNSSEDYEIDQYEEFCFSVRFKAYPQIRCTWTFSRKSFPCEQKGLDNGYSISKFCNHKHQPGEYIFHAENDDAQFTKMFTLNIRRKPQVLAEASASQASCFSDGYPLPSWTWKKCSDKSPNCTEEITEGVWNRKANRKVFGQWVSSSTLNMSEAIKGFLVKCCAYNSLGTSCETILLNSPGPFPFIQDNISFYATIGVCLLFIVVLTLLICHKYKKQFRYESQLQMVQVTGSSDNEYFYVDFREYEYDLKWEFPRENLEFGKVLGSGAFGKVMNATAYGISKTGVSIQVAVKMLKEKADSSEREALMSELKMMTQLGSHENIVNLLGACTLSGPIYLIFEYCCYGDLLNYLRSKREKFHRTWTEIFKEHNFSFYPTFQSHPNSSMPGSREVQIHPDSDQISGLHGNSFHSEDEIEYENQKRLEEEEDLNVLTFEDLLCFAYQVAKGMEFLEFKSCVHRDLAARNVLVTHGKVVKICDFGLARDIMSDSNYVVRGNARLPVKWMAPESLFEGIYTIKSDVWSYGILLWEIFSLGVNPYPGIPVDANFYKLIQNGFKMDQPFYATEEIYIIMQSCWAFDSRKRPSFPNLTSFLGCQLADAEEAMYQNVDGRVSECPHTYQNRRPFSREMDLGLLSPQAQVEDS

AXL = biological target: T14, AXL (Homo sapiens, UniProt P30530); assay: as above
T14 construct: purchased Reaction Biology Corp. (Kinase HotSpot service)

RIPK3 = biological target: T15, RIPK3 (Homo sapiens, UniProt Q9Y572); assay: as above; conditions: 10 µM
T15 construct: purchased Reaction Biology Corp. (Kinase HotSpot service)

FLT1/VEGFR1 = biological target: T16, FLT1/VEGFR1 (Homo sapiens, UniProt P17948); assay: as above
T16 construct: purchased Reaction Biology Corp. (Kinase HotSpot service)

Aurora A = biological target: T17, Aurora A (Homo sapiens, UniProt O14965); assay: as above
T17 construct: purchased Reaction Biology Corp. (Kinase HotSpot service)

FLT3 (F594_R595 ins EY) = FLT3 (F594_R595 ins EY) (Homo sapiens, UniProt P36888); assay: Enzymatic activity against FLT3 mutants
CAMKK1 = biological target: T18, CAMKK1 (Homo sapiens, UniProt Q8N5S9); assay: Reaction Biology Kinase HotSpot radiometric kinase assay
T18 construct: purchased Reaction Biology Corp. (Kinase HotSpot service)

CDK4/cyclin D1 = biological target: T19, CDK4/cyclin D1 (Homo sapiens, UniProt P11802); assay: as above
T19 construct: purchased Reaction Biology Corp. (Kinase HotSpot service)

SYK = biological target: T20, SYK (Homo sapiens, UniProt P43405); assay: as above
T20 construct: purchased Reaction Biology Corp. (Kinase HotSpot service)

ALK = biological target: T21, ALK (Homo sapiens, UniProt Q9UM73); assay: as above
T21 construct: purchased Reaction Biology Corp. (Kinase HotSpot service)

c-Src = biological target: T22, c-Src (Homo sapiens, UniProt P12931); assay: as above
T22 construct: purchased Reaction Biology Corp. (Kinase HotSpot service)
T22 sequence (P12931 whole entry): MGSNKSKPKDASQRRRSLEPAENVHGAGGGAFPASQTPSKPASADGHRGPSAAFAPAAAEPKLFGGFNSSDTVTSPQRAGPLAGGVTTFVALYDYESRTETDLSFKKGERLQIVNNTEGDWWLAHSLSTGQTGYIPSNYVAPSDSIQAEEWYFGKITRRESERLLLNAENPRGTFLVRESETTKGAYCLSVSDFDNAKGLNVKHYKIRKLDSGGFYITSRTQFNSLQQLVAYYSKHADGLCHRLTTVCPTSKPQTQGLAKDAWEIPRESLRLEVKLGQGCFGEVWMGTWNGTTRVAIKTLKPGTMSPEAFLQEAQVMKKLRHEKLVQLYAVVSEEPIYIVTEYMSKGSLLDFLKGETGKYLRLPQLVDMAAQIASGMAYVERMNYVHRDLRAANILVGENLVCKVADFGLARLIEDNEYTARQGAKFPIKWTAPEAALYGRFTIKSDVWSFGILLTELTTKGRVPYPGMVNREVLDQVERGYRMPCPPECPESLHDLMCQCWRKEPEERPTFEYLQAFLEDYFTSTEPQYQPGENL

T3 sequence (P35968 20-1356): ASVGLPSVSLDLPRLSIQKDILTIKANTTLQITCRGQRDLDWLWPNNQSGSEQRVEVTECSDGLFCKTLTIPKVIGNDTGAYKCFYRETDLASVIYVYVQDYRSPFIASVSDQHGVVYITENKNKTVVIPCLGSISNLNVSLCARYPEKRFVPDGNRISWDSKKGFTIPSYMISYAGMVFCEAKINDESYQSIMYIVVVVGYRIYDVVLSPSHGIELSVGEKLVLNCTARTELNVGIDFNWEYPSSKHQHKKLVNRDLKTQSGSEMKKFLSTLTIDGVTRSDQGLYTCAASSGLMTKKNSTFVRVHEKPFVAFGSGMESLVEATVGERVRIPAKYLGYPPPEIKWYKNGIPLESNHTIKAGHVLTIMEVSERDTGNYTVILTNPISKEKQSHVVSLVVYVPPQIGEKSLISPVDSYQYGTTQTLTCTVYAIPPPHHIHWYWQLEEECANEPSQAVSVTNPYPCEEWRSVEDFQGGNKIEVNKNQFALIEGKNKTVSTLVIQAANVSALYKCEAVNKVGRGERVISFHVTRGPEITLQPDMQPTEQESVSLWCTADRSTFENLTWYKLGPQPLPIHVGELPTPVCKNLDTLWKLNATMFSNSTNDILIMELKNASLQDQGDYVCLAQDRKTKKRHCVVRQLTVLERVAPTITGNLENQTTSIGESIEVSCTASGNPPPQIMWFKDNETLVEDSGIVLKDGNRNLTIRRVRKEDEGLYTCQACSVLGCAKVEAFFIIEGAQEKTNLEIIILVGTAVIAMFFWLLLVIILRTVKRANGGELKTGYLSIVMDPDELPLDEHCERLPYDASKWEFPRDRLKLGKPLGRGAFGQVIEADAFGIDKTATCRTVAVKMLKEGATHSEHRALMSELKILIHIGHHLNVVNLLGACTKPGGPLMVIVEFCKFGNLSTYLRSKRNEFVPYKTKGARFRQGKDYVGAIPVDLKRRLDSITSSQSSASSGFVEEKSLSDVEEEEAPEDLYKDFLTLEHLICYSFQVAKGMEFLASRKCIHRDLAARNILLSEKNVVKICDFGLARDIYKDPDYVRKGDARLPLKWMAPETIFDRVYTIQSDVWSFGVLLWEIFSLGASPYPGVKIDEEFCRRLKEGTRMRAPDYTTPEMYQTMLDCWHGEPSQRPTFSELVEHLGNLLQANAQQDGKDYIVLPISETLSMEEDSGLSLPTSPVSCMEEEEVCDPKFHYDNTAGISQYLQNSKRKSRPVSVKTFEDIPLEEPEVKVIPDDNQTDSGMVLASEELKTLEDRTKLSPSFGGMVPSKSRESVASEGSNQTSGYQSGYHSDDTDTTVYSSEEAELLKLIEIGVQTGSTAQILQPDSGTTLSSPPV
T11 sequence (P36888 with tags, fused parts or gaps INS594R limits assumed): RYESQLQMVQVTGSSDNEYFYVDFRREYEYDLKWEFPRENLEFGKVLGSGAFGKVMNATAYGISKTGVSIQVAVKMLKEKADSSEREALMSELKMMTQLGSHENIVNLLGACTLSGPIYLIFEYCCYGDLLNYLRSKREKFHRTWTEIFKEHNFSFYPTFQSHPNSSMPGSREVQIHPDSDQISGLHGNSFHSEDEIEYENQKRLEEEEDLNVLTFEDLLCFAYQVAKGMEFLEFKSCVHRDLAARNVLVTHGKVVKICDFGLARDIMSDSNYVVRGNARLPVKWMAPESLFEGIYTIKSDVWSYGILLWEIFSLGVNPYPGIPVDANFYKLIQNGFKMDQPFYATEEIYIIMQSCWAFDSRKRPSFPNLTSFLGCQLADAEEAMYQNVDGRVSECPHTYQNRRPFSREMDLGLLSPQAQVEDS
T12 sequence (Q02750 whole entry): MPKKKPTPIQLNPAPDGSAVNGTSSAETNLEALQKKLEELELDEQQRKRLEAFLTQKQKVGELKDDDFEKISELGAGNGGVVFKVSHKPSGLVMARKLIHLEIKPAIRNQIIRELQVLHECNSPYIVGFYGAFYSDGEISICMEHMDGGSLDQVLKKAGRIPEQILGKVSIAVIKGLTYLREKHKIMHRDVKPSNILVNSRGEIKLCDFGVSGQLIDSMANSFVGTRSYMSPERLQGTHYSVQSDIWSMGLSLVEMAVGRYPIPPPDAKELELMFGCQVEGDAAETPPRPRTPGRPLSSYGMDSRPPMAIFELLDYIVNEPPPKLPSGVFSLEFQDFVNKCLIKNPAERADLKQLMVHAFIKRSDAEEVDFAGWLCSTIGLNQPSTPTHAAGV
T18 sequence (Q8N5S9 whole entry): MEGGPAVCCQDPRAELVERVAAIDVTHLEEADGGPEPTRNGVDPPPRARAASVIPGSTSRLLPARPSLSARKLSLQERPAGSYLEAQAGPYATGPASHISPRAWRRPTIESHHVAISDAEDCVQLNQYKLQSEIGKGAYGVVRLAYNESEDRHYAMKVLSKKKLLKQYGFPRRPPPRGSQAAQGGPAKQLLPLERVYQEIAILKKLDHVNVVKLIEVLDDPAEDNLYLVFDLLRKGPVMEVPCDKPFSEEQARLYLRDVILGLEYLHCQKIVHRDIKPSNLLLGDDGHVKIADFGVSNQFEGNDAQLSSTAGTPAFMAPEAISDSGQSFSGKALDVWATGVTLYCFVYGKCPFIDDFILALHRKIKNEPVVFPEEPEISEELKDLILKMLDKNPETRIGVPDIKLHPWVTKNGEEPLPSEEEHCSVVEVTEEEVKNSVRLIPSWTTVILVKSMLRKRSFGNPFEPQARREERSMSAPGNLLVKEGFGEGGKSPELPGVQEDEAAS
T6 sequence (P53779 whole entry): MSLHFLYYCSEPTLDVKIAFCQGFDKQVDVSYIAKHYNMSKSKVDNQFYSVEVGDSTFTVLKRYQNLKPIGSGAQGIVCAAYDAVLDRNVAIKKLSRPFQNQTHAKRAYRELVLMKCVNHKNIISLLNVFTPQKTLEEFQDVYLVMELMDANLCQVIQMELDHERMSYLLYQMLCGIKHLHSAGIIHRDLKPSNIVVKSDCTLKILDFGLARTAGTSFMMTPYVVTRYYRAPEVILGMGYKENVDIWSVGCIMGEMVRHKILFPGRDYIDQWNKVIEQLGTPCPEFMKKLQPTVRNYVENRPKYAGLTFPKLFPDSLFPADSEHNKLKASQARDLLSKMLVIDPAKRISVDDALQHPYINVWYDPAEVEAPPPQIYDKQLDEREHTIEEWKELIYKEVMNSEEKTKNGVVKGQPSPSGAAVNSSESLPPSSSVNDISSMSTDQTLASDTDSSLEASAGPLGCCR
T7 sequence (P06241 whole entry): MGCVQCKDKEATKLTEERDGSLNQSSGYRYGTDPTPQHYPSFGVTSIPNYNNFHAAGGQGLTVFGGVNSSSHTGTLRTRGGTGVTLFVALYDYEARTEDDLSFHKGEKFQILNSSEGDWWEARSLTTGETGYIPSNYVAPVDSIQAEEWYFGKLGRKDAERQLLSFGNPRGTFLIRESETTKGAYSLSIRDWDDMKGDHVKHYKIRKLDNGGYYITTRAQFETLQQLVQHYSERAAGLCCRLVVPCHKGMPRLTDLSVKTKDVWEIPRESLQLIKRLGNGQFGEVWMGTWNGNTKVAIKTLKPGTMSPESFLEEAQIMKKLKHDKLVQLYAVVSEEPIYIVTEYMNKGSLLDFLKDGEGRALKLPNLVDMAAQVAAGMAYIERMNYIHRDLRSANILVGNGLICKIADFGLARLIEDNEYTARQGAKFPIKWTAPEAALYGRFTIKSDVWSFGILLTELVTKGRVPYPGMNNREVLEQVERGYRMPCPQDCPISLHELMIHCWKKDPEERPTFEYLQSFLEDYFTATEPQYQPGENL
T15 sequence (Q9Y572 whole entry): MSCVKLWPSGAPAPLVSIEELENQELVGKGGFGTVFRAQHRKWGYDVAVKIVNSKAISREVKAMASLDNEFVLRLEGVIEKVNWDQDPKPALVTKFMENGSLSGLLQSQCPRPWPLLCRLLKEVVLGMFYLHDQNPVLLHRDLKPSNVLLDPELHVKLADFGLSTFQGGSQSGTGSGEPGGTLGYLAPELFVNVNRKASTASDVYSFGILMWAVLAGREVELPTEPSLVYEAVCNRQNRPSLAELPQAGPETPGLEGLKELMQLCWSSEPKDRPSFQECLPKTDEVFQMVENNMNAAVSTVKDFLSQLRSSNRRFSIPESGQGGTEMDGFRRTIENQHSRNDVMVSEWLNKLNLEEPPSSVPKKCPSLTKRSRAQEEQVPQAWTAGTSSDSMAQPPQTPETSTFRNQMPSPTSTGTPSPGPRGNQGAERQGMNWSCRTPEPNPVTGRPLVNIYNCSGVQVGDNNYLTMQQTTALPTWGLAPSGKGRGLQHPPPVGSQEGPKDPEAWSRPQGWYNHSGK

## Cc1oncc1C(=O)Nc1ccc2cnc(-c3cc(N4CCN(C)CC4)cc(C(F)(F)F)c3)nc2c1 [Compound 7d, 5-methyl-N-(2-(3-(4-methylpiperazin-1-yl)-5-(trifluoromethyl)phenyl)quinazolin-7-yl)isoxazole-4-carboxamide]
ERK1
  inhibition at 10 µM: 15%
PKA
  inhibition at 10 µM: 2.5%
KDR/VEGFR2
  inhibition at 10 µM: 16.8%
BTK
  inhibition at 10 µM: 17.5%
JAK3
  inhibition at 10 µM: 0.8%
JNK3
  inhibition at 10 µM: 19.5%
FYN
  inhibition at 10 µM: 19%
AKT1
  inhibition at 10 µM: 5.48%
LYN
  inhibition at 10 µM: 20.5%
c-Kit
  inhibition at 10 µM: 0%
FLT3 (F594_R595 ins R)
  IC50: 0.524 µM
MEK1
  inhibition at 10 µM: 0%
FLT3-ITD; FLT3-ITD, 10 µM
  inhibition at 10 µM: 95.2%
FLT3-ITD; read-out: IC50 against FLT3-ITD
  IC50: 0.301 µM
FLT3
  inhibition at 10 µM: 96.6%
  inhibitory activity towards FLT3 (in words): maintained the activity; also recorded: maintained inhibitory activity
FLT3; FLT3 wild type, read-out: IC50 against FLT3
  IC50: 0.106 µM
AXL
  inhibition at 10 µM: 21.2%
RIPK3
  inhibition at 10 µM: 12.8%
FLT1/VEGFR1
  inhibition at 10 µM: 5.23%
Aurora A
  inhibition at 10 µM: 20.1%
FLT3 (F594_R595 ins EY)
  IC50: 0.495 µM
CAMKK1
  inhibition at 10 µM: 0%
CDK4/cyclin D1
  inhibition at 10 µM: 3.01%
SYK
  inhibition at 10 µM: 22.4%
ALK
  inhibition at 10 µM: 17%
c-Src
  inhibition at 10 µM: 14.6%
